{
  "source": "patent US11524956B2",
  "about": "“Alkyne substituted quinazoline compound and methods of use” (Newgen Therapeutics, Inc., priority 2011, dated 2022)",
  "key": {"ErbB2 kinase protein": {"molecular_target": "ErbB2 kinase protein (Homo sapiens (Human), UniProt P04626)", "sequence (P04626 23-1255)": "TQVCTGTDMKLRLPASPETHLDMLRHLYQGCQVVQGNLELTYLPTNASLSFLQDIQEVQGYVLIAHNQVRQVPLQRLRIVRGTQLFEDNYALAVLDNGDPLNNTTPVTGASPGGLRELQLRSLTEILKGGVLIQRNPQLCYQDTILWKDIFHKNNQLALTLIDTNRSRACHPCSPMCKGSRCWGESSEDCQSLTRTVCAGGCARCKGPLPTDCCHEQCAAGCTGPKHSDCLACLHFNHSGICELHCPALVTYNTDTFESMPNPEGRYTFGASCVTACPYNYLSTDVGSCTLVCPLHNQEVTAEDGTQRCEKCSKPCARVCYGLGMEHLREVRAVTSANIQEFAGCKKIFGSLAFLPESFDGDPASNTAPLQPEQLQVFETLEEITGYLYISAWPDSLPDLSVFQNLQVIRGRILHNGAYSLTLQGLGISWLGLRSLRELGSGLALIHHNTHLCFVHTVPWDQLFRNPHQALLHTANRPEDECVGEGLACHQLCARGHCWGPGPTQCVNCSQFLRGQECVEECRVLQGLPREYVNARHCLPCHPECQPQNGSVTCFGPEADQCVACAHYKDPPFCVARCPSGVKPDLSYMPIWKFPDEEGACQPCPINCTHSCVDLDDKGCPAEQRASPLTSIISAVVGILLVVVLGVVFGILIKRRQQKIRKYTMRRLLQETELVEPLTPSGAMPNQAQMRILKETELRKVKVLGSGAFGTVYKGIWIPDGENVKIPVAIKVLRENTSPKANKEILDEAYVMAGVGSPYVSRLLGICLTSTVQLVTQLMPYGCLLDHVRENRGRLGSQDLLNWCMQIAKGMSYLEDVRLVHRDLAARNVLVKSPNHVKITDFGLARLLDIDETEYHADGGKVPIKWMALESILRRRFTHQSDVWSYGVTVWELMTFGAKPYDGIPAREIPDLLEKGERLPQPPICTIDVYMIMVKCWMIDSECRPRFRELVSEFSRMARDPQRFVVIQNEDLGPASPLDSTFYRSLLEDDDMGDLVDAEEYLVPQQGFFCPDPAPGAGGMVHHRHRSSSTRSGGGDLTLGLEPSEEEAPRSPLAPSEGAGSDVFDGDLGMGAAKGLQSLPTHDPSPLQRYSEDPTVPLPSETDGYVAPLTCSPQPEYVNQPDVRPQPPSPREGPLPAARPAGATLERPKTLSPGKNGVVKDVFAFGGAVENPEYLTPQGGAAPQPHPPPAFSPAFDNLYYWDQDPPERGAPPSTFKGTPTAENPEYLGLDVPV", "experiment": "Kinase assay for ErbB2", "type": "biochemical", "conditions": "read-out: Kinase inhibition IC50 (nM) ErbB2", "protocol": "The assay is performed similarly to the kinase assay for […] as described above, except ErbB2 kinase protein is used instead of EGFR kinase protein."}, "BT474 cells": {"system": "BT474 cells", "experiment": "Cell proliferation inhibition assay for BT474 (CCK-8)", "type": "cell-based", "conditions": "Homo sapiens, BT-474; 72h", "protocol": "Human breast cancer BT474 cells was cultured in low glucose DMEM (Life Technologies 12320-032) containing 10% fetal bovine serum (FBS) at 37° C. in a humidified 10% CO2, 90% air incubator. Cells were harvested using trypsin EDTA, counted using a haemocytometer, and plated 10000 cell/well in a 96-well clear tissue culture plate. The cells were incubated for 24 h at 37° C. to allow adherence. A serials of concentrations of each compound (ranging from 30 um to 0.16 nM, 5-fold dilution) in 96-well plate, and incubated for 72h. Each concentration was tested in triplicate wells. During the cell proliferation assay, BT474 cells were cultured in low-glucose DMEM containing 5% FBS, 50 ug/ml gentamicin, and 0.3% v/v DMSO. The culture medium was removed via aspiration, and the cell viability was detected by using CCK-8 cell proliferation kit. The IC50 value measured for each compound in Examples 1 to 7 is <100 nM."}, "H1975 xenograft": {"system": "H1975 xenograft", "experiment": "In vivo efficacy in NCI-H1975 xenograft mouse model", "set-up": "species or system Balb/c nude mice", "conditions": "KU113 10 and 20 mg/kg po qd; afatinib 20 mg/kg; erlotinib 100 mg/kg", "protocol": "H1975 cells were purchased from ATCC were cultured in RPMI1640±10% FBS-1% P/S antibiotics. Balb/c nude mice, female, 6-8 week, 18+2 g were purchased from. Shanghai Laboratory Animal Co. Ltd. The purchased mice were adapted to the environment for 7 days before use, and were housed at 22-25° C. with humidity 40-70%, and light cycle with fluorescent light for 12-hour light (8:00-20:00) 12-hour dark.\nFormulation: Erlotinib, afatinib (BIBW2992), and KU113 were dissolved in 2% DMA and 98% (40% HP-β-CD deionized water).\nThe cancer cells (H1975) were amplified and implanted into the nude mice (right flank) with 5.0×10^6 cells in PBS and 1:1 with matrigel in a total volume of 0.1 ml/mouse. […]\nThe mice were monitored twice daily for appearance and behavior, and for signs of morbidity and/or mortality. The tumor volume was measured twice a week, and the body weight was measured immediately before measuring the tumor volume throughout the whole study. […]\nTumor sizes were measured twice weekly in two dimensions using a caliper, and the volume was expressed in mm^3 using the formula: V=½×a×b^2 where a and b are the long and short diameters of the tumor, respectively. […]"}, "[1]": {"experiment": "Rat pharmacokinetics studies (plasma)", "type": "in vivo, Sprague Dawley rats", "protocol": "Sample preparation: The test article each was dissolved in 10% DMSO and 90% of (40% HP-β-CD in deionized water) to yield concentration at 2 mg/mL for intravenous and oral administration.\nMethod development and plasma samples analysis were performed by Analytical Sciences Division of the Testing Facility by means of LC-MS/MS. The analytical results were confirmed using quality control samples for intra-assay variation (within day variation). The accuracy of >66% of the quality control samples was between 80-120% of the known value(s).\nEach group consisted of 3 male Sprague Dawley rats (7-8 week old, 200-300 g body weight). The test articles were administered by a single bolus intravenous injection via the lateral tail vein or via oral gavage.\nBlood samples (approximately 300 μl) were collected via retro-orbital puncture after anaesthesia using mixed gas (CO2:O2=7:3) into tubes containing EDTA-K3 anticoagulant at appropriate time points. 10 time points (Groups 1-2): Pre-dose and post-dose at 5 min, 15 min, 30 min, 1 h, 2 h, 4 h, 6 h, 8 h and 24 h.\nAnalysis: The PK blood samples were centrifuged at approximately 8000 rpm for (3 minutes at 2-8° C. and the resulting plasma were separated and stored frozen at approximately −80° C. (following separation, the plasma may be initially placed on ice prior to being stored in the −80° C. freezer). All the plasma samples were labeled with detailed information such as study number, animal number, matrix, time points of collection and date of collection.\nStandard set of parameters including Area Under the Curve (AUC(0-t) and AUC(0-∞)), elimination half-live (T1/2), maximum plasma concentration (Cmax), time to reach maximum plasma concentration (Tmax), clearance (CL), and volume of distribution (Vz) will be calculated using noncompartmental analysis modules in FDA certified pharmacokinetic program WinNonlin Professional v5.2 (Pharsight, USA) by the Study Director. Furthermore, the Bioavailability will be estimated using the following formula:\n• AUC(0-t) Area under the curve from the time of dosing to the last measurable concentration • AUC(0-∞) Area under the curve from the time of dosing extrapolated to infinity, based on the last observed concentration • CL Total body clearance, CL=Dose/AUC • Cmax Maximum observed concentration, occurring at Tmax • F Bioavailability • MRT(0-∞) Mean residence time from the time of dosing to infinity • Tmax Time of maximum observed concentration • T1/2 Terminal half-life=In(2)/λz • Vz Volume of distribution based on the terminal phase"}, "[2]": {"conditions": "male, Sprague Dawley, rat plasma, IV 1 mg/Kg"}, "[3]": {"conditions": "male, Sprague Dawley, rat plasma, PO 5 mg/Kg"}},
  "data": [
    {"smiles": "CN(C)C/C=C/C(=O)Nc1cc2c(Nc3ccc(F)c(Cl)c3)ncnc2cc1C#C[C@@H]1[C@H]2COC[C@@H]12", "note": "[Example 4, (E)-N-(4-(3-chloro-4-fluorophenylamino)-7-(2-((1R,5S,6s)-3-oxa-bicyclo[3.1.0]hexan-6-yl)ethynyl)quinazolin-6-yl)-4-(dimethylamino)but-2-enamide]", "values": [
      {"measurement": "IC50", "setting": "ErbB2 kinase protein", "result": "< 100", "unit": "nM"},
      {"measurement": "IC50", "setting": "BT474 cells", "result": "< 100", "unit": "nM"},
      {"measurement": "anticancer effect on H1975 xenograft versus comparators", "setting": "H1975 xenograft", "result": "significantly more effective than erlotinib; and comparable with afatinib"},
      {"measurement": "bioavailability", "setting": "[1]; male, Sprague Dawley, plasma, rat, PO 5 mg/Kg, using AUC(0-t) instead of AUC(0-∞), read-out: calculated oral bioavailability", "result": 80.5, "unit": "%"},
      {"measurement": "AUC(0-inf)", "setting": "[1]; [2]", "result": 158, "unit": "ng·h/mL"},
      {"measurement": "AUC(0-t)", "setting": "[1]; [2]", "result": 135, "unit": "ng·h/mL"},
      {"measurement": "Cmax", "setting": "[1]; [2]", "result": 44.4, "unit": "ng/mL"},
      {"measurement": "clearance", "setting": "[1]; [2]", "result": 105, "unit": "mL/min/kg"},
      {"measurement": "half-life", "setting": "[1]; [2]", "result": 7.48, "unit": "h"},
      {"measurement": "Vd", "setting": "[1]; male, Sprague Dawley, rat plasma, IV 1 mg/Kg, read-out: Vz", "result": 20.5, "unit": "L/kg"},
      {"measurement": "AUC(0-inf)", "setting": "[1]; [3]", "result": 555, "unit": "ng·h/mL"},
      {"measurement": "AUC(0-t)", "setting": "[1]; [3]", "result": 542, "unit": "ng·h/mL"},
      {"measurement": "Cmax", "setting": "[1]; [3]", "result": 39.3, "unit": "ng/mL"},
      {"measurement": "half-life", "setting": "[1]; [3]", "result": 14.9, "unit": "h"},
      {"measurement": "CL", "setting": "[1]; rat plasma, PO 5 mg/Kg", "result": 150, "unit": "mL/min/kg"},
      {"measurement": "Vz", "setting": "[1]; rat plasma, PO 5 mg/Kg", "result": 58.1, "unit": "L/kg"},
      {"measurement": "F", "setting": "[1]; rat, IV 1 mg/Kg", "result": 100, "unit": "%"},
      {"measurement": "F", "setting": "[1]; rat, PO 5 mg/Kg, from AUC(0-∞)", "result": 70.1, "unit": "%"},
      {"measurement": "oral bioavailability and brain penetration (qualitative)", "setting": "[1]; rat, oral administration", "result": "good oral bioavailability and brain penetration"}
    ]}
  ]
}
